Data from US7098237B1, “Remedies for ischemia reperfusion injury” (Shionogi & Co., Ltd., priority 1998, dated 2006).

What was measured:
[1] = system: Total Hepatic Vascular Exclusion Model (liver ischemia reperfusion); assay: Hepatic function related factors (AST, ALT, LDH) by administration before ischemia, Total Hepatic Vascular Exclusion Model; type: in vivo, Beagle dogs; conditions: 0.2 mg/kg/hr continuous i.v. for one hour before ischemia; 2 h ischemia then reperfusion; peripheral artery blood
Excerpt: (§1) Beagle dogs (female, 10 to 12 kg) are used for experimental animals. Under the control of general anesthesia by inserting a tube into the trachea, a bypass is formed between the portal vein, femoral vein and external jugular vein. […] An auxiliary circulation is applied during this two hour's operation. Ischemia is continued for two hours, and reperfusion of the blood is resumed by releasing the clump. Various physiological changes are confirmed under laparotomy until three hours after reperfusion and thereafter abdomen is sutured (the method for maintaining anesthesia during this period follows the existing protocol, and fluctuation of the blood pressure and the like are not corrected by different anesthetic methods). Survival at two weeks after the surgery is confirmed.
The test compound is administered before and after warm ischemia. The compound is administered by intravenous injection.
Various factors related to the hepatic function and blood flow of hepatic tissues were measured by sampling over time from the peripheral artery and hepatic vein.
as §1, with “bypass was” for “bypass is”, “methods). The blood is collected from the peripheral artery to measure AST, ALT and LDH as indexes of the hepatic functions.” for “methods).”
The experimental group is divided into two groups with and without administration of the compound (1). […]

[2] = system: Total Hepatic Vascular Exclusion Model (liver ischemia reperfusion); assay: Blood flow in the hepatic tissue by administration before ischemia (laser Doppler method); type: in vivo, Beagle dogs; conditions: 0.2 mg/kg/hr continuous i.v. for one hour before ischemia
Excerpt: as §1, with “bypass was” for “bypass is”, “methods). The blood is collected from the peripheral artery to measure AST, ALT and LDH as indexes of the hepatic functions.” for “methods).”
A dosage of 0.2 mg/kg/hr of the compound (1) was administered by continuous intravenous injection through the peripheral vein during the period of one hour from before ischemia to the occurrence of ischemia.
(§2) The blood flow in the hepatic tissue was measured using a laser Doppler method.

[3] = system: Total Hepatic Vascular Exclusion Model (liver ischemia reperfusion); assay: Hepatic function related factors (AST, ALT, LDH) by administration after ischemia; type: in vivo, Beagle dogs; conditions: 0.2 mg/kg/hr continuous i.v. for one hour from 20 minutes before reperfusion to 40 minutes after reperfusion
Excerpt: as §1, with “bypass was” for “bypass is”, “methods). The blood is collected from the peripheral artery to measure AST, ALT and LDH as indexes of the hepatic functions.” for “methods).”
(§3) The experiments were carried out by the same method as in Example 1. A dosage of 0.2 mg/kg/hr of the compound (1) was administered by continuous intravenous injection through the peripheral vein for one hour from 20 minutes before blood reperfusion to 40 minutes after the reperfusion.

[4] = system: Total Hepatic Vascular Exclusion Model (liver ischemia reperfusion); assay: Blood flow in the hepatic tissue by administration after ischemia (laser Doppler method); type: in vivo, Beagle dogs; conditions: 0.2 mg/kg/hr continuous i.v. for one hour from 20 minutes before reperfusion to 40 minutes after reperfusion
Procedure: as §2, §3
The blood flow in the hepatic tissue was measured by the same method as in Examples 2 and 3.

[5] = system: lung injury after small intestine ischemia reperfusion; conditions: Am. J. Physiol., 268: G397, 1995; cited from earlier work

Row | Structure (SMILES) | ALT value compared with the control group (FIG. 2) [1] | AST value compared with the control group (FIG. 1) [1] | LDH value compared with the control group (FIG. 3) [1] | blood flow in the liver after reperfusion compared with the control group (FIG. 4) [2] | ALT value compared with the control group (FIG. 6) [3] | AST value compared with the control group (FIG. 5) [3] | LDH value compared with the control group (FIG. 7) [3] | blood flow after reperfusion compared with the control group (FIG. 8) [4] | occurrence of lung injury accompanied by reperfusion of the small intestine [5]
1 | CCc1c(C(=O)C(N)=O)c2c(OCC(=O)[O-])cc(C)cc2n1Cc1ccccc1.[Na+] [compound (1)] | significantly suppressed | significantly suppressed | significantly suppressed | significantly increased | significantly suppressed | significantly suppressed | significantly suppressed | significantly increased | –
2 | CCN(CC)CCCC(C)Nc1c2ccc(Cl)cc2nc2ccc(OC)cc12 (stereo not drawn) [quinacrine] | – | – | – | – | – | – | – | – | can be prevented
